Results on 32 molecules are retold here after patent US20090312288A1 (TAKEDA PHARMACEUTICAL COMPANY LIMITED, priority 2008, published 2009).

What is called IC50 is the midpoint of a concentration-inhibition curve.

Each structure is given as a SMILES string.

Chain of Aurora B/INCENP (Q96GD4 whole entry): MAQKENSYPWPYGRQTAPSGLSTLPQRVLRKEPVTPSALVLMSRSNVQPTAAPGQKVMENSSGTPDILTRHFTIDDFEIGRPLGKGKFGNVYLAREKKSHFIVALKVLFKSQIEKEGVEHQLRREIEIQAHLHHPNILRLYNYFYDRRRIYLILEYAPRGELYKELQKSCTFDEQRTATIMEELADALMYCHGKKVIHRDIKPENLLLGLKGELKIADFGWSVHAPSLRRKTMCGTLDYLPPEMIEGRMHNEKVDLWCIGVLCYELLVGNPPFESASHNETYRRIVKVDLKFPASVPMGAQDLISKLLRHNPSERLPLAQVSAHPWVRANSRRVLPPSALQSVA
Chain of Aurora B/INCENP (Q9NQS7 whole entry partner): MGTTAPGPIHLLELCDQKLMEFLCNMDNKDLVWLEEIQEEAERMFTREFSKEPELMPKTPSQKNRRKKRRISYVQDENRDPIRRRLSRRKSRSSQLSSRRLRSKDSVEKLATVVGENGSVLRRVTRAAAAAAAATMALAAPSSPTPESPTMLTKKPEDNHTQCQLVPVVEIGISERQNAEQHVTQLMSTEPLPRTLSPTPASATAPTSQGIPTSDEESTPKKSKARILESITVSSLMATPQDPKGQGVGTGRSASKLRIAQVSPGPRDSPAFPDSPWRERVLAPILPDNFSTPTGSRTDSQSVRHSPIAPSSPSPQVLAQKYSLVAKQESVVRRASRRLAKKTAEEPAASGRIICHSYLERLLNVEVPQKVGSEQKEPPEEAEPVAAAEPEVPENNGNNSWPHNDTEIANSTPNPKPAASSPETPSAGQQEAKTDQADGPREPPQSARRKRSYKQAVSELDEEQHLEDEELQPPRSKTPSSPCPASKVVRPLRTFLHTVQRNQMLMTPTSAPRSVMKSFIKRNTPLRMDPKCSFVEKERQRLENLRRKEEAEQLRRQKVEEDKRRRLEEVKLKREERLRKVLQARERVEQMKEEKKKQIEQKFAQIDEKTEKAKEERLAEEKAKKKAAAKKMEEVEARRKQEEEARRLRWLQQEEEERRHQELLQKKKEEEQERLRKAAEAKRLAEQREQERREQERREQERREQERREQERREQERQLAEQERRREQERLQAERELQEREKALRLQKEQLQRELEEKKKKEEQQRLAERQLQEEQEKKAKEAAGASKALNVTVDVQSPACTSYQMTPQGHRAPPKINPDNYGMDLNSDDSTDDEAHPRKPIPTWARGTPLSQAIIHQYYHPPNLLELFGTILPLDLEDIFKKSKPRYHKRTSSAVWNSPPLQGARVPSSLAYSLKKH

This assay addresses Aurora B/INCENP (Homo sapiens, UniProt Q96GD4). The assay is described as follows: Determination of inhibition of AIK: Aurora B/INCENP direct fluorescence polarization (IMAP) assay. The following applies: 10 uM ATP, 0.8 nM Aurora B/INCENP; values given as bins; read-out: IC50 of Exemplified Compounds Against AIK B. It is filed as biochemical. The method, then:
Detection of the reaction product is performed by addition of Progressive IMAP binding reagent (Molecular Devices). Reaction product may be determined quantitatively by FP using an Analyst HT plate reader (Molecular Devices) with an excitation wavelength at 485 nm and emission at 530 nm and using a Fluorescein 505 dichroic mirror.
The assay reaction may be initiated as follows: 2 ul of (3×) 300 nM Fl-Peptide/30 uM ATP was added to each well of the plate, followed by the addition of 2 ul of (3×) inhibitor (2 fold serial dilutions for 11 data points for each inhibitor) containing 15% DMSO. Two microliters of (3×) 2.4 nM AuroraB/INCENP solution may be added to initiate the reaction (final enzyme concentration was 0.8 nM for Aurora B/INCENP). The reaction mixture may then be incubated at room temperature for 45 min, and quenched and developed by addition of 20 ul of 1 to 400 diluted Progressive IMAP binding reagent in 1× proprietary Progressive IMAP binding buffer A. Fluorescence polarization readings of the resulting reaction mixtures may be measured after a 60-minute incubation at room temperature.
IC50 values may be calculated by non-linear curve fitting of the compound concentrations and fluorescent polarization values to the standard IC50 equation.
A general note: Polarisation of emitted light reports the rotation of a fluorescent probe.
In the case of `CCS(=O)(=O)c1cccc(-c2ccc(OCCC#N)c3[nH]c4ncc(Cl)cc4c23)c1` [Compound 256, 3-(3-chloro-5-(3-(ethylsulfonyl)phenyl)-9H-pyrido[2,3-b]indol-8-yloxy)propanenitrile], the IC50 was more than 13 nM.

As for `CCS(=O)(=O)c1cccc(-c2cc(N(C)C(=O)CCN(C)C)c(OC)c3[nH]c4ncc(C)cc4c23)c1` [Compound 254, 3-(dimethylamino)-N-(5-(3-(ethylsulfonyl)phenyl)-8-methoxy-3-methyl-9H-pyrido[2,3-b]indol-7-yl)-N-methylpropanamide], the IC50 is more than 13 nM.

Regarding `CN1CCC(COc2ccc(-c3cccc(C(=O)NC4CC4)c3)c3c2[nH]c2ncc(Cl)cc23)CC1` [Compound 285, 3-(3-chloro-8-((1-methylpiperidin-4-yl)methoxy)-9H-pyrido[2,3-b]indol-5-yl)-N-cyclopropylbenzamide], the 50% inhibitory concentration (IC50) was 8.6 to 13 nM.

For `CCN(CCO)CCCOc1ccc(-c2cccc(S(=O)(=O)C3CC3)c2)c2c1[nH]c1ncc(Cl)cc12` [Compound 298, 2-((3-(3-chloro-5-(3-(cyclopropylsulfonyl)phenyl)-9H-pyrido[2,3-b]indol-8-yloxy)propyl)(ethyl)amino)ethanol], the 50% inhibitory concentration (IC50) was less than 4 nM.

On to `Cc1cnc2[nH]c3c(OCC4CCN(CCOP(=O)(O)O)CC4)ccc(-c4cccc(S(=O)(=O)C5CC5)c4)c3c2c1` [Compound 346, 2-(4-((5-(3-(cyclopropylsulfonyl)phenyl)-3-methyl-9H-pyrido[2,3-b]indol-8-yloxy)methyl)piperidin-1-yl)ethyl dihydrogen phosphate], for which the half-maximal inhibitory concentration (IC50) is less than 4 nM.

With `CONC(=O)c1cccc(-c2ccc(OC)c3[nH]c4ncc(C)cc4c23)c1` [Compound 260, N-methoxy-3-(8-methoxy-3-methyl-9H-pyrido[2,3-b]indol-5-yl)benzamide], the IC50 was more than 13 nM.

`CCS(=O)(=O)c1cccc(-c2cc(C(=O)NCC(O)CO)c(C)c3[nH]c4ncc(C)cc4c23)c1` (centres unmarked) [Compound 102, N-(2,3-dihydroxypropyl)-5-(3-(ethylsulfonyl)phenyl)-3,8-dimethyl-9H-pyrido[2,3-b]indole-7-carboxamide]: the IC50 was 4 to 5.5 nM.

Consider `CCS(=O)(=O)c1cccc(-c2ccc(OC[C@H]3CCNC3)c3[nH]c4ncc(C)cc4c23)c1` [Compound 189, (S)-5-(3-(ethylsulfonyl)phenyl)-3-methyl-8-(pyrrolidin-3-ylmethoxy)-9H-pyrido[2,3-b]indole], for which the IC50 was 8.6 to 13 nM.

`CCS(=O)(=O)c1cccc(-c2cnc(C#N)c3[nH]c4ncc(C)cc4c23)c1` [Compound 49, 5-(3-Ethanesulfonyl-phenyl)-3-methyl-9H-dipyrido[2,3-b;4′,3′-d]pyrrole-8-carbonitrile]: the half-inhibitory concentration (IC50) was in the range of 8.6 to 13 nM.

For `CCS(=O)(=O)c1cccc(-c2ccc(OCCCN(C)CCO)c3[nH]c4ncc(C)cc4c23)c1` [Compound 305, 2-((3-(5-(3-(ethylsulfonyl)phenyl)-3-methyl-9H-pyrido[2,3-b]indol-8-yloxy)propyl)(methyl)amino)ethanol], the half-maximal inhibitory concentration (IC50) was less than 4 nM.

Take `CCS(=O)(=O)c1cccc(-c2cccc3[nH]c4ncccc4c23)c1` [Compound 9, 5-(3-(ethylsulfonyl)phenyl)-9H-pyrido[2,3-b]indole]: the IC50 is more than 13 nM.

Turning to `Cc1cnc2[nH]c3c(OC[C@@H](CO)CN(C)C)ccc(-c4cccc(S(=O)(=O)C5CC5)c4)c3c2c1` [Compound 402, (R)-3-(5-(3-(cyclopropylsulfonyl)phenyl)-3-methyl-9H-pyrido[2,3-b]indol-8-yloxy)-2-((dimethylamino)methyl)propan-1-ol], the IC50 is less than 4 nM.

On to `CCS(=O)(=O)c1cccc(-c2cnc(OC[C@@H](O)CO)c3[nH]c4ncc(C)cc4c23)c1` [Compound 57], for which the IC50 was 4 to 5.5 nM.

Consider `CCS(=O)(=O)c1cccc(-c2cc(C(=O)NCCCN3CCN(C)CC3)c(C)c3[nH]c4ncc(C)cc4c23)c1` [Compound 95, 5-(3-(ethylsulfonyl)phenyl)-3,8-dimethyl-N-(3-(4-methylpiperazin-1-yl)propyl)-9H-pyrido[2,3-b]indole-7-carboxamide], for which the half-inhibitory concentration (IC50) was more than 13 nM.

In the case of `CCS(=O)(=O)c1cccc(-c2ccc(OCCCN3CCOCC3)c3[nH]c4ncc(C)cc4c23)c1` [Compound 440, 4-(3-(5-(3-(ethylsulfonyl)phenyl)-3-methyl-9H-pyrido[2,3-b]indol-8-yloxy)propyl)morpholine], the IC50 is more than 13 nM.

As to `CCN(CC)CCCOc1ccc(-c2cccc(S(=O)(=O)CC)c2)c2c1[nH]c1ncc(C)cc12` [Compound 425, N,N-diethyl-3-(5-(3-(ethylsulfonyl)phenyl)-3-methyl-9H-pyrido[2,3-b]indol-8-yloxy)propan-1-amine], the IC50 lay within 8.6 to 13 nM.

As for `CCN(CCO)CCCOc1ccc(-c2cccc(C(=O)NC3CC3)c2)c2c1[nH]c1ncc(C)cc12` [Compound 273, N-cyclopropyl-3-(8-(3-(ethyl(2-hydroxyethyl)amino)propoxy)-3-methyl-9H-pyrido[2,3-b]indol-5-yl)benzamide], the half-inhibitory concentration (IC50) lay within 5.6 to 8.5 nM.

Regarding `CCNCc1cc(-c2cccc(S(=O)(=O)CC)c2)c2c(c1)[nH]c1ncc(C)cc12` [Compound 139, [5-(3-Ethanesulfonyl-phenyl)-3-methyl-9H-pyrido[2,3-b]indol-7-ylmethyl]-ethyl-amine], the half-maximal inhibitory concentration (IC50) was more than 13 nM.

`CCN(CC)CCOc1ccc(-c2cccc(S(=O)(=O)CC)c2)c2c1[nH]c1ncc(Cl)cc12` [Compound 221, 2-(3-chloro-5-(3-(ethylsulfonyl)phenyl)-9H-pyrido[2,3-b]indol-8-yloxy)-N,N-diethylethanamine]: the IC50 is 5.6 to 8.5 nM.

For `CN1CCC(COc2ccc(-c3cccc(S(=O)(=O)C4CC4)c3)c3c2[nH]c2ncc(Cl)cc23)CC1` [Compound 286, 3-chloro-5-(3-(cyclopropylsulfonyl)phenyl)-8-((1-methylpiperidin-4-yl)methoxy)-9H-pyrido[2,3-b]indole], the IC50 fell in the range of 8.6 to 13 nM.

`CCS(=O)(=O)c1cccc(-c2ccc(OCCN3CCN(C)CC3)c3[nH]c4ncc(Cl)cc4c23)c1` [Compound 224, 3-chloro-5-(3-(ethylsulfonyl)phenyl)-8-(2-(4-methylpiperazin-1-yl)ethoxy)-9H-pyrido[2,3-b]indole]: the IC50 was in the range of 5.6 to 8.5 nM.

As for `CCS(=O)(=O)c1cccc(-c2ccc(OCCCO)c3[nH]c4ncc(C)cc4c23)c1` [Compound 217, 3-(5-(3-(ethylsulfonyl)phenyl)-3-methyl-9H-pyrido[2,3-b]indol-8-yloxy)propan-1-ol], the IC50 is 4 to 5.5 nM.

For `CCS(=O)(=O)c1cccc(-c2cnc(OCCCN(C)C)c3[nH]c4ncc(C)cc4c23)c1` [Compound 52, {3-[5-(3-Ethanesulfonyl-phenyl)-3-methyl-9H-dipyrido[2,3-b;4′,3′-d]pyrrol-8-yloxy]-propyl}-dimethyl-amine], the IC50 is 8.6 to 13 nM.

With `CCS(=O)(=O)c1cccc(-c2ccc(OCCCn3ccnc3)c3[nH]c4ncc(Cl)cc4c23)c1` [Compound 301, 8-(3-(1H-imidazol-1-yl)propoxy)-3-chloro-5-(3-(ethylsulfonyl)phenyl)-9H-pyrido[2,3-b]indole], the IC50 is less than 4 nM.

As for `CCN(CC)C(=O)c1cccc(-c2ccc(OC)c3[nH]c4ncc(C)cc4c23)c1` [Compound 165, N,N-diethyl-3-(8-methoxy-3-methyl-9H-pyrido[2,3-b]indol-5-yl)benzamide], the IC50 lay within 4 to 5.5 nM.

Regarding `Cc1cnc2[nH]c3c(OCCCN4CCC(O)CC4)ccc(-c4cccc(S(=O)(=O)C5CC5)c4)c3c2c1` [Compound 300, 1-(3-(5-(3-(cyclopropylsulfonyl)phenyl)-3-methyl-9H-pyrido[2,3-b]indol-8-yloxy)propyl)piperidin-4-ol], the half-maximal inhibitory concentration (IC50) is less than 4 nM.

For `CCS(=O)(=O)c1cccc(-c2cnc(NC3CCN(C)CC3)c3[nH]c4ncc(C)cc4c23)c1` [Compound 44, [5-(3-Ethanesulfonyl-phenyl)-3-methyl-9H-dipyrido[2,3-b;4′,3′-d]pyrrol-8-yl]-(1-methyl-piperidin-4-yl)-amine], the IC50 lay within 8.6 to 13 nM.

As for `CNS(=O)(=O)c1cccc(-c2ccc(OCC3CCN(C)CC3)c3[nH]c4ncc(C)cc4c23)c1` [Compound 180, N-methyl-3-(3-methyl-8-((1-methylpiperidin-4-yl)methoxy)-9H-pyrido[2,3-b]indole-5-yl)benzenesulfonamide], the 50% inhibitory concentration (IC50) lay within 8.6 to 13 nM.

With `COc1ccc(-c2cccc(NC(C)=O)c2)c2c1[nH]c1ncc(C)cc12` [Compound 162, N-(3-(8-methoxy-3-methyl-9H-pyrido[2,3-b]indol-5-yl)phenyl)acetamide], the half-inhibitory concentration (IC50) is 5.6 to 8.5 nM.

Turning to `CCS(=O)(=O)c1cccc(-c2cnc(OC[C@H](C)O)c3[nH]c4ncc(C)cc4c23)c1` [Compound 62, (S)-1-[5-(3-Ethanesulfonyl-phenyl)-3-methyl-9H-dipyrido[2,3-b;4′,3′-d]pyrrol-8-yloxy]-propan-2-ol], the 50% inhibitory concentration (IC50) was in the range of 4 to 5.5 nM.

With `CCS(=O)(=O)c1cccc(-c2cc(CN3CCN(C)CC3)cc3[nH]c4ncc(C)cc4c23)c1` [Compound 137, 5-(3-Ethanesulfonyl-phenyl)-3-methyl-7-(4-methyl-piperazin-1-ylmethyl)-9H-pyrido[2,3-b]indole], the IC50 was in the range of 8.6 to 13 nM.

Turning to `CCS(=O)(=O)c1cccc(-c2cc(C(=O)NCC(C)(C)O)c(C)c3[nH]c4ncc(C)cc4c23)c1` [Compound 103, 5-(3-(ethylsulfonyl)phenyl)-N-(2-hydroxy-2-methylpropyl)-3,8-dimethyl-9H-pyrido[2,3-b]indole-7-carboxamide], the IC50 was in the range of 8.6 to 13 nM.
